Results published in patent US20190300882A1, “METHODS OF TREATING NEUROBLASTOMA AND REAGENTS THEREFOR” (GARVAN INSTITUTE OF MEDICAL RESEARCH, priority 2016, published 2019).

Assays:
KELLY cells [1] = test: Primary functional miRNA mimic screen, CellTiter-Glo cell viability; type: cell-based; conditions: miRNA mimic 25 nM alone, 144 hours post-transfection
Excerpt: Breast cancer cell lines (MDA-MB-231, MDA-MB-468, SK-BR-3; BT474) and prostate cancer cell lines (PC3, DU145) were obtained from American Type Culture Collection (ATCC). Neuroblastoma cell lines (KELLY, SHEP) were received from Children's Cancer Institute (CCIA). The KELLY cells were selected as a MYCN amplified neuroblastoma cell line and the SHEP cells were selected as a MYCN wild-type neuroblastoma cell line. All breast and prostate cancer cell lines were cultivated in RPMI media supplemented with 10% FCS, HEPES, and insulin. […] Each of the cell lines were reverse transfected in 384-well plate format with 25 nM of a miRNA from the Dharmacon miRNA mimic or inhibitor libraries (version 16.0) using liquid-handling robot Calliper Sciclone ALH3000 according to the conditions described in Table 3. […] Luminescence measurements were taken on the Synergy H4 high-throughput multimode microplate reader. All screens were performed in duplicates. Raw viability was normalised to a nontargeting control (OTP) or mock wells, and death genes or controls inducing varying levels of death were used to monitor transfection efficiency and to define dynamic range in each screen (FIG. 1). To define screen hits, normalised viability scores were binned in the following manner: CV1 bin included candidates with viability >=0.8; […] Only LC candidates were defined as screen hits.

SHEP cells [2] = test: as above; type: cell-based; conditions: miRNA mimic 25 nM alone, 144 hours post-transfection
Excerpt: Breast cancer cell lines (MDA-MB-231, MDA-MB-468, SK-BR-3; BT474) and prostate cancer cell lines (PC3, DU145) were obtained from American Type Culture Collection (ATCC). Neuroblastoma cell lines (KELLY, SHEP) were received from Children's Cancer Institute (CCIA). The KELLY cells were selected as a MYCN amplified neuroblastoma cell line and the SHEP cells were selected as a MYCN wild-type neuroblastoma cell line.
All breast and prostate cancer cell lines were cultivated in RPMI media supplemented with 10% FCS, HEPES, and insulin. The neuroblastoma cell lines, KELLY, SHEP, were grown in 10% FCS/RPMI and 10% FCS/DMEM, respectively.
(§1) Each of the cell lines were reverse transfected in 384-well plate format with 25 nM of a miRNA from the Dharmacon miRNA mimic or inhibitor libraries (version 16.0) using liquid-handling robot Calliper Sciclone ALH3000 according to the conditions described in Table 3. After 24 hours, media was changed using BioTek 406, and 144 hours post-transfection, cell viability was determined using CellTiter-Glo luminescent assay (Promega) at 1:2 dilution. Luminescence measurements were taken on the Synergy H4 high-throughput multimode microplate reader. All screens were performed in duplicates.
Raw viability was normalised to a nontargeting control (OTP) or mock wells, and death genes or controls inducing varying levels of death were used to monitor transfection efficiency and to define dynamic range in each screen (FIG. 1). To define screen hits, normalised viability scores were binned in the following manner: CV1 bin included candidates with viability >=0.8; CV2 bin included candidates with viability <0.8 and >0.5, and LC bin was assigned to candidates with normalised viability <=0.5. Only LC candidates were defined as screen hits.

[3] = tested on: SK-N-DZ MYCN-amplified neuroblastoma cell line; test: Secondary validation screen of lethal miRNAs, additional cell line, cell viability; type: cell-based; conditions: miRNA mimic alone
Procedure: as §1
(§2) The secondary validation screens were performed in accordance with the genome-wide screens described in Example 1 and Example 2, respectively, with the exception that an additional MYCN-amplified neuroblastoma cell line (SK-N-DZ) was added to each screen.
(§3) Furthermore, five additional non-active miRNAs discovered to have no measureable effect across all treatment groups of the genome-wide screen (‘non-lethal’ miRNAs) were included as negative controls.

KELLY cells [4] = test: Secondary validation screen of lethal miRNAs, cell viability; type: cell-based; conditions: miRNA mimic alone
Procedure: as §1, §2, §3

SHEP cells [5] = test: as above; type: cell-based; conditions: miRNA mimic alone
Procedure: as §1, §2, §3

[6] = tested on: SK-N-DZ MYCN-amplified neuroblastoma cell line; test: Secondary validation screen of synthetic lethal miRNAs with low dose IC30 chemotherapy, additional cell line; type: cell-based; conditions: for Additional cell line Viability (% of control) SKNDZ DXR: miRNA mimic + low dose IC30 doxorubicin; for Additional cell line Viability (% of control) SKNDZ VCR: miRNA mimic + low dose IC30 vincristine; for Additional cell line Viability (% of control) SKNDZ Vehicle: miRNA mimic + vehicle
Procedure: (§4) KELLY cells were grown in 10% FCS/RPMI as described in Example 1 and reverse transfected in 384-well plate format with 25 nM of a miRNA from the Dharmacon microRNA mimic Library (version 16.0) using liquid-handling robot Calliper Sciclone ALH3000 according to the conditions described in Table 3. After 24 hours, media was changed using a BioTek 406. Media was again changed after 48 hours and 96 hours using a BioTek 406, and at each of those time points low dose IC30 of vincristine or doxorubicin was added to the culture. 144 hours post-transfection, cell viability was determined using CellTiter-Glo luminescent assay (Promega) at 1:2 dilution. Luminescence measurements were taken on the Synergy H4 high-throughput multimode microplate reader as described in Example 1. All screens were performed in duplicates. The experimental design and timeline for this screen are illustrated in FIGS. 5 and 6, respectively.
as §2, §3

KELLY cells [7] = test: Primary miRNA mimic screen in combination with low dose IC30 of vincristine or doxorubicin, cell viability; type: cell-based; conditions: for Primary screen Viability (% of control) Kelly DXR: miRNA mimic 25 nM + low dose IC30 doxorubicin; for Primary screen Viability (% of control) Kelly VCR: miRNA mimic 25 nM + low dose IC30 vincristine; for Primary screen Viability (% of control) Kelly Vehicle: miRNA mimic 25 nM + vehicle
Procedure: To systematically identify miRNAs that affect viability and survival of neuroblstoma cells in combination with chemotherapy, a further functional miRNA screen was performed using the 1200 miRNAs from the miRIDIAN miRNA mimic Library (version 16.0; Dharmacon) in combination with low dose IC30 of vincristine or doxorubicin in the two neuroblastoma cancer cell lines. In doing so, the inventors identified miRNAs which result in a lethal phenotype to neuroblastoma cells when administered in combination with low dose IC30 chemotherapy (hereinafter referred to as ‘synthetic lethal’ miRNAs). […] After 24 hours, media was changed using a BioTek 406. […] Luminescence measurements were taken on the Synergy H4 high-throughput multimode microplate reader as described in Example 1. All screens were performed in duplicates.

IMR-90 cells = test: Cell toxicity screen of synthetic lethal miRNAs in non-cancer cells; conditions: for cell viability in non-cancer cells, DXR (% of control): IMR-90, miRNA + low dose IC30 doxorubicin; for cell viability in non-cancer cells, VCR (% of control): IMR-90, miRNA + low dose IC30 vincristine; for cell viability in non-cancer cells, Media (% of control): IMR-90, miRNA alone (media); for activity in IMR90 cells: even when administered in combination with a chemotherapeutic agent
Procedure: The cell toxicity screens were performed in IMR-90 cells (normal human fibroblast cells, ATCC).

KELLY cells [8] = test: Secondary validation screen of synthetic lethal miRNAs with low dose IC30 chemotherapy, cell viability; type: cell-based; conditions: for synthetic lethality with chemotherapy: in both Kelly and SKNDZ MYCN-amplified cells, secondary screen; for Secondary screen Viability (% of control) Kelly DXR: miRNA mimic + low dose IC30 doxorubicin; for Secondary screen Viability (% of control) Kelly VCR: miRNA mimic + low dose IC30 vincristine; for Secondary screen Viability (% of control) Kelly Vehicle: miRNA mimic + vehicle
Procedure: as §4, §2, §3

| Substance | Primary screen Viability (% of control) KELLY (KELLY cells [1]) | Primary screen Viability (% of control) SHEP (SHEP cells [2]) | Additional cell line Viability (% of control) SKNDZ [3] | Secondary screen Viability (% of control) KELLY (KELLY cells [4]) | Secondary screen Viability (% of control) SHEP (SHEP cells [5]) | Additional cell line Viability (% of control) SKNDZ DXR [6] | Additional cell line Viability (% of control) SKNDZ VCR [6] | Additional cell line Viability (% of control) SKNDZ Vehicle [6] | Primary screen Viability (% of control) Kelly DXR (KELLY cells [7]) | Primary screen Viability (% of control) Kelly VCR (KELLY cells [7]) | Primary screen Viability (% of control) Kelly Vehicle (KELLY cells [7]) | cell viability in non-cancer cells, DXR (% of control) (IMR-90 cells) | cell viability in non-cancer cells, VCR (% of control) (IMR-90 cells) | cell viability in non-cancer cells, Media (% of control) (IMR-90 cells) | activity in IMR90 cells (IMR-90 cells) | synthetic lethality with chemotherapy (KELLY cells [8]) | Secondary screen Viability (% of control) Kelly DXR (KELLY cells [8]) | Secondary screen Viability (% of control) Kelly VCR (KELLY cells [8]) | Secondary screen Viability (% of control) Kelly Vehicle (KELLY cells [8]) |
| --- | --- | --- | --- | --- | --- | --- | --- | --- | --- | --- | --- | --- | --- | --- | --- | --- | --- | --- | --- |
| hsa-miR-103a-2-5p (AGCUUCUUUACAGUGCUGCCUUG; chemistry not given here; listed as Homo sapiens) | 26 % of control | 46 % of control | 52 % of control | 39 % of control | 56 % of control | – | – | – | – | – | – | – | – | – | – | – | – | – | – |
| hsa-miR-148b-5p (AAGUUCUGUUAUACACUCAGGC; chemistry not given here; listed as Homo sapiens) | 5 % of control | 20 % of control | 21 % of control | 8 % of control | 34 % of control | – | – | – | – | – | – | – | – | – | – | – | – | – | – |
| hsa-miR-192-3p (CUGCCAAUUCCAUAGGUCACAG; chemistry not given here; listed as Homo sapiens) | 42 % of control | 43 % of control | 97 % of control | 54 % of control | 49 % of control | – | – | – | – | – | – | – | – | – | – | – | – | – | – |
| hsa-miR-380-3p (UAUGUAAUAUGGUCCACAUCUU; chemistry not given here; listed as Homo sapiens) | – | – | – | – | – | 30 % of control | 80 % of control | 100 % of control | 20 % of control | 63 % of control | 94 % of control | 96 % of control | 117 % of control | 99 % of control | minimal activity | substantial synthetic lethality | 38 % of control | 76 % of control | 90 % of control |
| hsa-miR-485-3p (guide GUCAUACACGGCUCUCCUCUCU; chemistry not given here; listed as Homo sapiens) | – | – | – | – | – | 69 % of control | 68 % of control | 113 % of control | 23 % of control | 52 % of control | 72 % of control | 76 % of control | 80 % of control | 79 % of control | minimal activity | substantial synthetic lethality | 47 % of control | 53 % of control | 85 % of control |
| hsa-miR-515-3p (guide GAGUGCCUUCUUUUGGAGCGUU; chemistry not given here; listed as Homo sapiens) | – | – | – | – | – | 24 % of control | 70 % of control | 85 % of control | 38 % of control | 56 % of control | 84 % of control | 50 % of control | 51 % of control | 59 % of control | – | substantial synthetic lethality | 42 % of control | 73 % of control | 82 % of control |
| hsa-miR-1321 (CAGGGAGGUGAAUGUGAU; chemistry not given here; listed as Homo sapiens) | – | – | – | – | – | 21 % of control | 45 % of control | 64 % of control | 4 % of control | 18 % of control | 42 % of control | 23 % of control | 23 % of control | 48 % of control | – | substantial synthetic lethality | 7 % of control | 24 % of control | 50 % of control |
